Measured values: patent publication US10654859B2, “Methanesulfonate polymorph of 5-type phosphodiesterase inhibitor and preparation method and applications thereof” (JINAN MEILUWEI BIOTECHNOLOGY CO., LTD., priority 2017, dated 2020)

Test: Solubility test (Chinese Pharmacopoeia 2010 criteria)
Format: physicochemical
Settings: 25° C.±2° C.; for solubility in 95% ethanol (pharmacopoeia term) / solubility in water (pharmacopoeia term): observed within 30 minutes
Method: The regulations on solubility in the guide to the second volume of Chinese Pharmacopoeia 2010 edition are used as criteria.
Weigh samples ground to fine powder (sample B: the compound of formula A; sample C: the methanesulfonate polymorph of the compound of formula A prepared in Embodiment 1), put the samples into a certain volume of solvent at 25° C.±2° C., and vigorously shake the samples for 30 seconds every 5 minutes; observe the dissolution within 30 minutes, wherein if solute particles are not observed, the samples are completely dissolved.

amount of 95% ethanol in which 1 g of sample is dissolved [g] | solubility in 95% ethanol (pharmacopoeia term) | amount of water in which 1 g of sample is dissolved [g] | solubility in water (pharmacopoeia term) | SMILES
> 10000 | almost insoluble | > 10000 | hardly soluble | CCCc1nn(C)c2c(=S)[nH]c(-c3cc(C(=S)N4CCN(C)CC4)ccc3OCC)nc12 [sample B, 5-[2-ethoxy-5-(4-methylpiperazin-1-ylthiocarbonyl)phenyl]-1-methyl-3-n-propyl-1,6-dihydro-pyrazolo[4,3-d]pyrimidin-7-thione]
≤ 90 | slightly soluble | ≤ 800 | slightly soluble | CCCc1nn(C)c2c(=S)[nH]c(-c3cc(C(=S)N4CCN(C)CC4)ccc3OCC)nc12 [sample C, 5-[2-ethoxy-5-(4-methylpiperazin-1-ylthiocarbonyl)phenyl]-1-methyl 3-n-propyl-1,6-dihydro-pyrazolo[4,3-d]pyrimidin-7-thione methanesulfonate polymorph]
